According to patent US20030219785A1, “Targeted drug delivery methods” (Vanderbilt University, priority 2002, published 2003):
Entries after “also recorded” stand apart in the source; their conditions may differ.

Legend:
[1] = tested on: endothelial cells of tumors; assay: Electron microscopy of WGA binding; type: in vivo
[2] = tested on: inflamed irradiated vasculature of LLC tumor; assay: WGA-FITC binding in LLC tumor vascular window model; type: in vivo, mouse; conditions: LLC window irradiated 2.5 Gy vs 0 Gy; 100 μl WGA-FITC tail vein; pictures 60 min after injection
H460 tumors = assay: Tumor volume assessment, H460; type: in vivo, mouse; conditions: irradiation 3 Gy x2 + cisplatin 0.08 mg days 1-4
Description: H460 cell line forms tumor in nude mice. […] Twenty mice bearing H460 tumors with a range of 10-13 mm of diameter on their right hind limbs were divided into four groups (five mice per group). The first group received no treatment as the control group. The second group received radiation therapy (3 Gy×2 fraction) on days 1 and 3. The third group received radiation as […] and 0.08 mg/100 μl of cisplatin in PBS by tail vein injection after irradiation on days 1, 2, 3 and 4. The forth group received radiation as […] and 0.5 mg of nanomag beads-10 μg of WGA-0.08 mg of cisplatin cocktail in 100 μl PBS by tail vein injection after irradiation on days 1, 2, 3 and 4 with 15 minutes of magnetic force field after each time injection. Tumors volumes were measured 3 times weekly using skim calipers as described previously (see […]., et al., Nat. Med. 1:786-791 (1995); Hanson, et al., Radiation Research 142:281-287 (1995)) starting on day 1 and ending on the eighth measurement, or when the tumor volume reached 5 times that of the beginning volumes. Data was calculated as the percentage of original (day 1) tumor volume and graphed as fractional tumor volume+/-standard deviation (SD) for each treatment group. […]

GL-261 tumors = assay: Tumor volume assessment, GL-261; type: in vivo, mouse; conditions: group 3: cisplatin 0.08 mg tail vein days 1-4, no irradiation
From the text: H460 cell line forms tumor in nude mice. […] Forty mice bearing GI-261 tumors on their right hind limbs were divided eight groups (five mice per group). An equal number of large and intermediate size (11-15 mm) tumors were present in each group. The first group received no treatment as the control group. The second group received radiation therapy (3 Gy×2 fractions) on days 1 and 3. Irradiated mice were immobilized in […] chambers and the entire body was shielded with lead, except for tumor bearing hind limb. The third group received 0.08 mg/100 μl of cisplatin (Sigma) in PBS by tail vein injection on days 1, 2, 3 and 4. The forth group received 0.5 mg of nanomag beads-10 μg of WGA-0.08 mg cisplatin cocktail in 100 μl PBS by tail vein injection on days 1, 2, 3 and 4. The fifth group received irradiation of 3 Gy on days 1 and 3 and the same treatments as group 3 after irradiation on days 1, 2, 3 and 4. […] Tumors volumes were measured 3 times weekly using skim calipers as described previously (see […]., et al., Nat. Med. 1:786-791 (1995); Hanson, et al., Radiation Research 142:281-287 (1995)) starting on day 1 and ending on the eighth measurement, or when the tumor volume reached 5 times that of the beginning volumes. Data was calculated as the percentage of original (day 1) tumor volume and graphed as fractional tumor volume+/-standard deviation (SD) for each treatment group. […]

## wheat germ agglutinin [WGA]
[1]
  location of WGA binding: most WGA binding was located at endothelial intercellular gaps
[2]
  WGA-FITC binding to tumor vasculature: efficiently and specifically bind; also recorded: much greater binding ability

## N.N.[Cl][Pt][Cl] [cisplatin]
H460 tumors
  delay of tumor growth: 11 days
GL-261 tumors
  tumor growth delay: 3 to 4 days
